Read-outs that look alike come from different tables or passages of the source.
Assays:
Type in all cases: biochemical
[1] = target: T1, IAPP fibrils (Homo sapiens, UniProt P10997); experiment: Congo red binding assay with IAPP fibrils; conditions: 3-day incubation
T1 construct: purchased Bachem Inc
T1 sequence (P10997 34-70 limits assumed): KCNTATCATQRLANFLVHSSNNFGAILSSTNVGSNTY
Outline: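 Congo red staining of washed 0.2 μm filters measured the aggregated IAPP retained after a 3-day co-incubation with compound or EDTA. Weight ratios IAPP:compound were 1:1, 1:0.1, 1:0.01 or 1:0.001; loss of color relative to compound-free IAPP was scored.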

[2] = target: T2, NAC fibrils (Homo sapiens, UniProt P37840); experiment: Thioflavin T fluorometry - disruption of Parkinson's disease NAC fibrils; conditions: 3 days; for inhibition / % Inhibition NAC (result ± S.D.): 25 μM pre-fibrillized NAC, 37° C.; for inhibition: read-out: % Inhibition NAC (result ± S.D.); for disruption/disassembly of pre-formed NAC fibrils (in words): all concentrations tested (ratios 1:1 to 1:0.001)
T2 construct: NAC is a 35-amino acid fragment of α-synuclein; purchased Bachem Inc
Method: In this assay, Thioflavin T binds specifically to NAC fibrils, and this binding produces a fluorescence enhancement at 485 nm that is directly proportional to the amount of NAC fibrils present. The higher the fluorescence, the greater the amount of NAC fibrils present (Naki et al, Lab. Invest. 65:104-110, 1991; Levine III, Protein Sci. 2:404-410, 1993; Amyloid: Int. J. Exp. Clin. Invest. 2:1-6, 1995).
In this study, 25 μM of pre-fibrillized NAC (Bachem Inc) was incubated at 37° C. for 3 days either alone or in the presence of dihydroxy synthetic analog compounds #1, 3, 23, 26, 52, 63, 66, 67, or EDTA (at NAC:test compound weight ratios of 1:1, 1:0.1, 1:0.01 or 1:0.001). Following 3-days of co-incubation, 50 βl of each incubation mixture was transferred into a 96-well microtiter plate containing 150 μl of distilled water and 50 μl of a Thioflavin T solution (i.e. 500 mM Thioflavin T in 250 mM phosphate buffer, pH 6.8). The fluorescence was read at 485 nm (444 nm excitation wavelength) using an ELISA plate fluorometer after subtraction with buffer alone or compound alone, as blank.

[3] = target: T3, Aβ 1-42 fibrils (Homo sapiens, UniProt P05067); experiment: Thioflavin T fluorometry - disruption of pre-formed Aβ 1-42 Alzheimer's fibrils; conditions: 25 μM pre-fibrillized Aβ 1-42, 37° C., 3 days; for inhibition: read-out: % Inhibition Aβ (result ± S.D.)
T3 construct: purchased Bachem Inc
T3 sequence (P05067 672-713): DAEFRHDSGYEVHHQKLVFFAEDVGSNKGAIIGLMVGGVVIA
Outline: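 Pre-fibrillized Aβ1-42 (25 µM) incubated 3 days at 37 °C alone or with compound at Aβ:compound weight ratios 1:1 to 1:0.001. Remaining fibrils quantified by Thioflavin T fluorescence (ex 444/em 485 nm) in phosphate buffer pH 6.8, blank-subtracted for buffer or compound alone.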

[4] = target: T1, IAPP fibrils; experiment: Thioflavin T fluorometry - disruption of type 2 diabetes IAPP fibrils; conditions: 25 μM pre-fibrillized IAPP, 37° C., 3 days; for inhibition: read-out: % Inhibition IAPP (result ± S.D.)
Outline: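 Pre-fibrillized human IAPP (25 μM) incubated 3 days at 37 °C alone or with compound at IAPP:compound weight ratios of 1:1 to 1:0.001. Mixtures then mixed with Thioflavin T in phosphate buffer pH 6.8; fluorescence read at 485 nm (ex 444 nm) after blank subtraction.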

[5] = IAPP:test compound wt/wt ratio 1:0.001
[6] = IAPP:test compound wt/wt ratio 1:0.01
[7] = IAPP:test compound wt/wt ratio 1:0.1
[8] = IAPP:test compound wt/wt ratio 1:1
[9] = NAC:test compound wt/wt ratio 1:0.001
[10] = NAC:test compound wt/wt ratio 1:0.01
[11] = NAC:test compound wt/wt ratio 1:0.1
[12] = NAC:test compound wt/wt ratio 1:1
[13] = Aβ:test compound wt/wt ratio 1:0.001
[14] = Aβ:test compound wt/wt ratio 1:0.01
[15] = Aβ:test compound wt/wt ratio 1:0.1
[16] = Aβ:test compound wt/wt ratio 1:1

Structure (SMILES)	% Inhibition IAPP (result ± S.D.), Congo red binding [1, 5] [%]	% Inhibition IAPP (result ± S.D.), Congo red binding [1, 6] [%]	% Inhibition IAPP (result ± S.D.), Congo red binding [1, 7] [%]	% Inhibition IAPP (result ± S.D.), Congo red binding [1, 8] [%]	inhibition [2, 9] [%]	inhibition [2, 10] [%]	inhibition [2, 12] [%]	inhibition [3, 13] [%]	inhibition [3, 14] [%]	inhibition [3, 15] [%]	inhibition [3, 16] [%]	inhibition [4, 5] [%]	inhibition [4, 6] [%]	inhibition [4, 7] [%]	inhibition [4, 8] [%]	disruption/disassembly of pre-formed NAC fibrils (in words) [2]	also measured
O=C(N[C@@H]1CCCC[C@H]1NC(=O)c1ccc(O)c(O)c1)c1ccc(O)c(O)c1 (relative stereo) [Compound 26, N,N′-bis(3,4-dihydroxybenzoyl)-trans-1,2-diaminocyclohexane]	10.8 ± 2.63	5.3 ± 6.14	7.5 ± 2.83	0.0 ± 1.21	0	56.8 ± 4.6	70.4 ± 3.22	0	0	11.7 ± 3.67	37.8 ± 5.5	3.7 ± 4.67	24.6 ± 6.77	45.9 ± 17.7	52.5 ± 2.44		inhibition [2, 11]: 61.3 ± 6.52%
O=C(c1ccc(O)c(O)c1)C(O)c1ccc(O)c(O)c1 (centres unmarked) [Compound 1, 3,4,3′,4′-tetrahydroxybenzoin]		18.6 ± 4.05	10.6 ± 3.40	40.7 ± 2.49	0	68.2 ± 2.55	100 ± 1	0	19.2 ± 4.31	64.8 ± 1.98	97.3 ± 0.23	6.4 ± 4.4	57.3 ± 0.16	93 ± 1.27	99 ± 0.11	dose-dependent disruption/disassembly	inhibition [2, 11]: 99.5 ± 0.53%
Oc1ccc(Cc2ccc(O)c(O)c2)cc1O [Compound 3, 3,4,3′,4′-tetrahydroxydiphenylmethane]	11.1 ± 5.26	16.3 ± 1.13	37.9±3.10	55.5±2.68												dose-dependent disruption/disassembly	% Inhibition NAC (result ± S.D.) [2, 9]: 67.3 ± 6.37%; % Inhibition NAC (result ± S.D.) [2, 10]: 93.9±0.77%; % Inhibition NAC (result ± S.D.) [2, 11]: 91.0±1.99%; % Inhibition NAC (result ± S.D.) [2, 12]: 98.0 ± 1.78%; % Inhibition Aβ (result ± S.D.) [3, 13]: 5.5 ± 1.99%; % Inhibition Aβ (result ± S.D.) [3, 14]: 53.1 ± 1.67%; % Inhibition Aβ (result ± S.D.) [3, 15]: 57.8±6.36%; % Inhibition Aβ (result ± S.D.) [3, 16]: 99.5 ± 0.10%; % Inhibition IAPP (result ± S.D.) [4, 5]: 30.7 ± 6.71%; % Inhibition IAPP (result ± S.D.) [4, 6]: 79.9±1.47%; % Inhibition IAPP (result ± S.D.) [4, 7]: 97.7±0.19%; % Inhibition IAPP (result ± S.D.) [4, 8]: 100 ± 0.20%
O=C(NCc1ccc(O)c(O)c1)C(=Cc1ccc(O)c(O)c1)NC(=O)c1ccc(O)c(O)c1 [Compound 21, α-(3,4-dihydroxybenzamido)-3,4-dihydroxycinnamic acid 3,4-dihydroxybenzyl amide]	0.0 ± 2.10	5.1 ± 4.53	10.4 ± 3.53	35.9 ± 0.21				8.9 ± 2.13	48.2 ± 8.29	81 ± 1.31	98.6 ± 0.54	5.4 ± 15.4	25.8 ± 3.61	85.4 ± 0.86	98.5 ± 0.06		
O=C(c1ccc(O)c(O)c1)N1CCN(C(=O)c2ccc(O)c(O)c2)CC1 [Compound 23, 1,4-bis(3,4-dihydroxybenzoyl)piperazine]	5.1 ± 2.45	9.3 ± 1.40	4.5 ± 4.12	5.5 ± 2.33	0	35.6 ± 9.73	58 ± 8.43	0	16.5 ± 4.02	26.2 ± 4.37	46.7 ± 4.62	27.3 ± 45.4	44.3 ± 32.5	67.2 ± 18.4	85.2 ± 0.55		
O=C(Nc1ccc(O)c(O)c1)c1ccc(O)c(O)c1 [Compound 51, 3,4-dihydroxybenzoic acid 3,4-dihydroxyanilide]	1.6 ± 1.01	3.6 ± 2.59	27.5 ± 3.49	55.6 ± 1.48				29 ± 25.2	55.3 ± 5.23	94.9 ± 0.24	99.4 ± 0.05	11.8 ± 6.45	56.6 ± 1.69	96.6 ± 1	99.9 ± 0.11		
O=C(Nc1ccc(O)c(O)c1)C(=O)Nc1ccc(O)c(O)c1 [Compound 63, oxalic acid bis(3,4-dihydroxyanilide)]	0.0 ± 2.25	11.7 ± 2.26	4.5 ± 1.62	15.4 ± 1.34	17.3 ± 12.6	33 ± 1.69	45.6 ± 31	1.6 ± 9.47	57.5 ± 10.6	23.6 ± 25.8	85.3 ± 0.91	19 ± 0.3	56.2 ± 8.77	84.2 ± 1.16	94.9 ± 0.65	dose-dependent disruption/disassembly	
O=C(Nc1ccc(O)c(O)c1)Nc1ccc(O)c(O)c1 [Compound 76, 1,3-bis(3,4-dihydroxyphenyl)urea]	3.4 ± 1.07	14.2 ± 2.25	16.5 ± 2.60	53.9 ± 5.44				12.2 ± 5.98	40.9 ± 3.76	86.5 ± 1.18	99.3 ± 1.35	9 ± 0.32	41.5 ± 6.67	87.5 ± 1.89	99.6 ± 1.01		

Reference: US20070276034A1, “Compounds, compositions and methods for the treatment of synucleinopathies” (priority 2002, published 2007)
